{"source": "ChEMBL document CHEMBL1137403", "about": "“Discovery of 2-[4-{{2-(2S,5R)-2-cyano-5-ethynyl-1-pyrrolidinyl]-2-oxoethyl]amino]- 4-methyl-1-piperidinyl]-4-pyridinecarboxylic acid (ABT-279): a very potent, selective, effective, and well-tolerated inhibitor of dipeptidyl peptidase-IV, useful for the treatment of diabetes” (J Med Chem, 2006)", "key": {"Dipeptidyl peptidase 9": {"biological_target": "Dipeptidyl peptidase 9 (Homo sapiens, UniProt Q86TI2)", "sequence (Q86TI2 whole entry)": "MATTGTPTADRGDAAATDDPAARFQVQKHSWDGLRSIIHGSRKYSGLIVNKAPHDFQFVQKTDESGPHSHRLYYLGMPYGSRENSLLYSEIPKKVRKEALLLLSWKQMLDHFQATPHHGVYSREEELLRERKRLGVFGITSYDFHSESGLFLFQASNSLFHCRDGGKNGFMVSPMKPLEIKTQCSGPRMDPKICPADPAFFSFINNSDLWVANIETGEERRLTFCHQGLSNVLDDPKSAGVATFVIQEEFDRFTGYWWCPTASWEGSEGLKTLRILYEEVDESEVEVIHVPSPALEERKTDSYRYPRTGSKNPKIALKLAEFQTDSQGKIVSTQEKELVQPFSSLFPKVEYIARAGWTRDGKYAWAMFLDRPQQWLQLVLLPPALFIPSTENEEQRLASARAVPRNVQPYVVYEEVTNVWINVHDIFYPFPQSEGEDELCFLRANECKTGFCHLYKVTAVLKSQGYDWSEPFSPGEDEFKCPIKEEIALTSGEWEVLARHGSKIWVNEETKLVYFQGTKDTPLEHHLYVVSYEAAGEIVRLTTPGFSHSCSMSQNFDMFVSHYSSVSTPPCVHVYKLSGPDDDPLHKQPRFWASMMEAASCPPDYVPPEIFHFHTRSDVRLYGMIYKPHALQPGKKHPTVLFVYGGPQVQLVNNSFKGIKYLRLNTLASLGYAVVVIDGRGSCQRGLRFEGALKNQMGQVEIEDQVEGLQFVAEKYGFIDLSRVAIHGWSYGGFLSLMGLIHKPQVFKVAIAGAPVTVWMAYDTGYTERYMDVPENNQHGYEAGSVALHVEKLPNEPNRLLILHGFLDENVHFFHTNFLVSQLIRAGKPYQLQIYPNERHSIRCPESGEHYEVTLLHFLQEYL"}, "Prolyl endopeptidase FAP": {"biological_target": "T1, Prolyl endopeptidase FAP (Homo sapiens, UniProt Q12884)", "T1 sequence (Q12884 whole entry)": "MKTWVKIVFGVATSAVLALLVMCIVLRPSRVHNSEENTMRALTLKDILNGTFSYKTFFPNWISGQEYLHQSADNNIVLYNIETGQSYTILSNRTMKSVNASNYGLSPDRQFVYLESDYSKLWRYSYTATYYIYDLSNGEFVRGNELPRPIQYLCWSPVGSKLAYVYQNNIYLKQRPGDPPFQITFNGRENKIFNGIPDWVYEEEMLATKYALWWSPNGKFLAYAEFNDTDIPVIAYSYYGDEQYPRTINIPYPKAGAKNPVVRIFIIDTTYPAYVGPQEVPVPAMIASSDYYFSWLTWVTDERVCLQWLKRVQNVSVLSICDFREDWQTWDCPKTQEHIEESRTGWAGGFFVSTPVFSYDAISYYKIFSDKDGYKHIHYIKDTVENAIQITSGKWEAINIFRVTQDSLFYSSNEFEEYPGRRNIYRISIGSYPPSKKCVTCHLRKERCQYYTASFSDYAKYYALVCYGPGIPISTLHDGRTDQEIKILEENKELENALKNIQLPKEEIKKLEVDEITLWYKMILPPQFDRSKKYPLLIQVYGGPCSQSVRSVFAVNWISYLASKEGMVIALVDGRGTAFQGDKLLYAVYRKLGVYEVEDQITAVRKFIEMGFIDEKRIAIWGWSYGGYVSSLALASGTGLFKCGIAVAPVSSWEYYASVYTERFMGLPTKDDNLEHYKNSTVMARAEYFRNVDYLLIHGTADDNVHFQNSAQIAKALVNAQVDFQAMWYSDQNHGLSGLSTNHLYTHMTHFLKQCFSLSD", "assay": "Inhibition of FAPalpha"}, "Prolyl endopeptidase": {"biological_target": "T2, Prolyl endopeptidase (Homo sapiens, UniProt P48147)", "T2 sequence (P48147 whole entry)": "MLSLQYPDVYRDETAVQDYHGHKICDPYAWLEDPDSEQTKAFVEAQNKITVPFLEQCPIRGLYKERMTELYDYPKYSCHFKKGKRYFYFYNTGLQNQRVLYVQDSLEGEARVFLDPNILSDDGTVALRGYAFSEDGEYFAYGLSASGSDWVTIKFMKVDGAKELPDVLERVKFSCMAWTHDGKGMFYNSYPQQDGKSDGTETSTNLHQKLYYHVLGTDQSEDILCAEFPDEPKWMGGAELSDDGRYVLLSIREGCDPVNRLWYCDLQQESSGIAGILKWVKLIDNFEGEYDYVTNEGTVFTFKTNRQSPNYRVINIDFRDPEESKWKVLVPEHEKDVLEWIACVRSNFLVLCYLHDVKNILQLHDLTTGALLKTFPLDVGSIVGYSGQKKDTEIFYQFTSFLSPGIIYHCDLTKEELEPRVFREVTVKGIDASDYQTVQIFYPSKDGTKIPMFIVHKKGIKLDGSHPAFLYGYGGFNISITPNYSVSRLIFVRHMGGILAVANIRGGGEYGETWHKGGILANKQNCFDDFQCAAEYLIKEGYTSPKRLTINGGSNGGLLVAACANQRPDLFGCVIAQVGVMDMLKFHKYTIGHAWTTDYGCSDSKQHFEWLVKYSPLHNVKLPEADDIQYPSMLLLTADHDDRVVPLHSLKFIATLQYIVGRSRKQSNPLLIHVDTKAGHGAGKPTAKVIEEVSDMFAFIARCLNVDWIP", "assay": "Inhibition of POP"}, "Dipeptidyl peptidase 8": {"biological_target": "Dipeptidyl peptidase 8 (Homo sapiens, UniProt Q6V1X1)", "sequence (Q6V1X1 whole entry)": "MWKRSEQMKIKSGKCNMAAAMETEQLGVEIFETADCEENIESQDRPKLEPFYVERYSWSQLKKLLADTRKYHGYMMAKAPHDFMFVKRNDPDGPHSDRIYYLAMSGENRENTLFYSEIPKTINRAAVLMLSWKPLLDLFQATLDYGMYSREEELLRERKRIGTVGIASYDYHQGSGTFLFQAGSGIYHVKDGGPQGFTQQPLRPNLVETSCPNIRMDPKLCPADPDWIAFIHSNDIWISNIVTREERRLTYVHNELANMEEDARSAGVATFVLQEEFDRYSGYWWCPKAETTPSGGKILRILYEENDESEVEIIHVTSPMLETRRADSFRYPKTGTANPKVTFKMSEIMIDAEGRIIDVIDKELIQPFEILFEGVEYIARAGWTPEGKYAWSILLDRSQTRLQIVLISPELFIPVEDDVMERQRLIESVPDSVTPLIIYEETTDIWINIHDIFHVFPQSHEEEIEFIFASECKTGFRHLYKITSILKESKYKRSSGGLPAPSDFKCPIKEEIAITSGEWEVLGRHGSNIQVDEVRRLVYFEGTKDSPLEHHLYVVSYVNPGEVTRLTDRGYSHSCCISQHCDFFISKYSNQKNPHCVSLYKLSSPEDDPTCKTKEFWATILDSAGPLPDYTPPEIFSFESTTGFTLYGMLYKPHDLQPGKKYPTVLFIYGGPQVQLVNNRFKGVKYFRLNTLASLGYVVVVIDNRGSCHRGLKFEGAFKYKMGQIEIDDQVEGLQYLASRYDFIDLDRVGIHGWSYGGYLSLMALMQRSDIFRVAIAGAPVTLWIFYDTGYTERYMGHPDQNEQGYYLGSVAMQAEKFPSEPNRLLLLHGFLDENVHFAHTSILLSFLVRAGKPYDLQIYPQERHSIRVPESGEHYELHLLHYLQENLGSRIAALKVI"}, "Dipeptidyl peptidase 2": {"biological_target": "Dipeptidyl peptidase 2 (Homo sapiens, UniProt Q9UHL4)", "assay": "Inhibition of DPP7"}}}
{"smiles": "C#C[C@H]1CC[C@@H](C#N)N1C(=O)[C@@H](N)C1CCCC1", "values": [{"measurement": "Ki", "setting": "Dipeptidyl peptidase 9", "result": "> 30", "unit": "µM"}]}
{"smiles": "C#C[C@H]1CC[C@@H](C#N)N1C(=O)CNC1(C)CCN(c2ccc(C(=O)O)cn2)CC1", "values": [{"measurement": "Ki", "setting": "Prolyl endopeptidase FAP", "result": "> 30", "unit": "µM"}, {"measurement": "Ki", "setting": "Prolyl endopeptidase", "result": "> 30", "unit": "µM"}, {"measurement": "Ki", "setting": "Dipeptidyl peptidase 9", "result": "> 30", "unit": "µM"}, {"measurement": "Ki", "setting": "Dipeptidyl peptidase 8", "result": "> 30", "unit": "µM"}, {"measurement": "Ki", "setting": "Dipeptidyl peptidase 2", "result": "> 30", "unit": "µM"}]}
{"smiles": "C#C[C@H]1CC[C@@H](C#N)N1C(=O)CN[C@H]1CC[C@H](Oc2ccc(C#N)cn2)CC1", "note": "(mixture of isomers)", "values": [{"measurement": "Ki", "setting": "Dipeptidyl peptidase 8", "result": "> 30", "unit": "µM"}]}
{"smiles": "C#C[C@H]1CC[C@@H](C#N)N1C(=O)CNC1CCCC1", "values": [{"measurement": "Ki", "setting": "Dipeptidyl peptidase 9", "result": "> 30", "unit": "µM"}, {"measurement": "Ki", "setting": "Dipeptidyl peptidase 8", "result": "> 30", "unit": "µM"}]}
